As usually defined, the melting point is the temperature, or range, at which the solid turns liquid.

In the case of `O=C1N(Cc2noc(C(F)F)n2)c2ccccc2C12COc1cc3c(cc12)OCO3` (configuration not stated), the melting point lay within 137 to 139 °C.
Then `N#Cc1nn(-c2c(Cl)cc(C(F)(F)F)cc2Cl)c(N)c1S(=O)(=O)c1ccc(Cl)cc1`, with 90 to 95 °C; and `Clc1ccc(C(Cl)Cl)cn1`, with 60 °C.
Then `CCCc1ccnc2c(=O)[nH]c(-c3cc(S(=O)(=O)N4CCN(CCO)CC4)ccc3OCC)nc12`, with 187 to 188 °C; and `COC(=O)c1ccc(C(=O)c2ccc(NC(C)=O)cc2)cc1`, with 212 °C; and `OC(CCCc1ccccc1)c1ccc(OCc2ccc3ccccc3n2)cc1` (configuration not stated), with 118 to 119 °C.
Next, `CC(C)C(S)C(=O)NC1(C(=O)NC(Cc2ccc(-c3ccsc3)nc2)C(=O)O)CCCC1` (configuration not stated): 215 to 217 °C; `NC(=O)Cc1ccc2[nH]ccc2c1`: 146 to 147 °C; `CCc1nn(C2CCCC2)c2c1CCN(c1ccc(OC)cc1)C2=O`: 64.7 °C.
For `N#Cc1cccn(-c2ccc(S(=O)(=O)N(CCO)CCO)cc2)c1=O`, the melting point lay within 226 to 228 °C.
For the compound `COC(=O)c1ccc(Cl)cc1OCC#N`, the melting point fell in the range of 73 to 76 °C.
Then `CSc1cccc(C2CC(=O)C=C(O)C2)c1` (configuration not stated), with 141 °C.
Then `CCOc1cccc(C2C(C(=O)OC)=C(C)NC(C)=C2C(=O)OC)c1OCC(=O)NCCO[N+](=O)[O-]`, with 159 to 160 °C; and `Cc1c(CC(=O)O)c(=O)oc2cc(O)c(O)c([N+](=O)[O-])c12`, with > 350 °C.
Then `CN(C)c1ccc(CNC(=O)c2cccnc2Oc2ccc(F)cc2)cc1`, with 99.5 to 102 °C; and `O=[N+]([O-])c1ccc(-c2nc(-c3ccccn3)no2)cc1`, with 211 to 213 °C.
For the compound `CCNC(=O)Nc1cc(C(=O)OC)c(O)c2ncc(Cc3ccc(F)cc3)cc12`, the melting point fell in the range of 280 to 282 °C.
Turning to `CC(C)N(C[C@H](O)[C@H](Cc1ccccc1)NC(=O)OCc1ccccc1)NC(=O)OC(C)(C)C`, the melting point fell in the range of 114 to 115 °C.
For `O=c1cc(CCCCBr)c2ccccc2[nH]1`, the melting point lay within 156 to 158 °C.
Then `CN(C)c1ccc(NC(=O)C(C#N)C(=O)c2nn(-c3ccccc3)c3c2CSc2ccccc2-3)cc1` (configuration not stated), with 215 to 216 °C; and `COc1cccc(Cc2cc(Br)ccc2O)c1`, with 97 to 102 °C.
Then `O=C1COc2ccc(C3=Nc4ccccc4SC3c3ccccc3Cl)cc2N1` (configuration not stated), with 195 to 200 °C; and `CC1(C)OC(C=Cc2ccc(Cl)c(Cl)c2)=CC1=O`, with 100 to 102 °C; and `COc1ccc(Sc2ncccc2C(=O)NCC23CC4CC(CC(C4)C2)C3)cc1`, with 130 to 131 °C.
Compound `CN(C)C(=N)Nc1ccccc1-c1ccc(Cl)cc1` came in with a melting point of 150 to 152 °C.
Then `CON(C(=O)c1ccoc1C)C1CCCCC1`, with 46 °C.
For the compound `O=C(OCP(=O)(C1CCCCC1)C1CCCCC1)c1ccc(C(=O)OCP(=O)(C2CCCCC2)C2CCCCC2)cc1`, the melting point is 226 to 228 °C.
Compound `CC(C)N1CC(COc2cccc3c(=O)[nH]ccc23)OC1=O` (configuration not stated) had a melting point of 215 to 216 °C.
Next, `CC(=O)Nc1cccc(-c2ccnc3c(C(=O)c4cccs4)cnn23)c1`: 245 to 247 °C.
Next, `CCCCc1oc2ccccc2c1C(=O)c1ccc(N(CCN(CC)CC)S(=O)(=O)c2cccnc2)cc1`: 141 to 146 °C.
With `CN(C)c1cccc2c(S(=O)(=O)Nc3ccc(Cl)cn3)cccc12`, the melting point lay in the range of 160 to 162 °C.
As for `Cn1cc(C2OC(=O)NC2=O)c2ccccc21` (configuration not stated), the melting point is 152 to 154 °C.
For `CC(=O)N1CCCN(CC2=Nc3cccc4c(=O)[nH]nc(c34)N2)CC1`, the melting point is 191 to 193 °C.
Next, `COCSCCNC(=C[N+](=O)[O-])NCC(O)c1ccccc1` (configuration not stated): 107 to 110 °C; `CCCCCC1(c2ccc(C)cc2)OCc2c(O)c(C)nc(Cl)c21` (configuration not stated): 180 °C.
Then `CC(C)(C)OC(=O)c1ccc(C=NON)cc1`, with 153 to 155 °C; and `COc1ccc(-c2oc3c(C(=O)O)cccc3c(=O)c2C)cc1`, with 266 to 267 °C.
In the case of `CCOC(=O)C(=CNC1CC1)C(=O)c1c(C)c(F)c(F)c(F)c1F`, the melting point was in the range of 72 to 74 °C.
Then `CCS(=O)(=O)N[C@H](C(=O)NCCc1cc(Br)c(O)c(OC)c1)C(C)C`, with 145 to 147 °C; and `CCCCCCOc1ccc(NC(=O)NCCC(C)(C)C)cc1`, with 103 to 104 °C.
Then `COc1ccc(-c2c(Cl)c(CN3C(=O)c4ccccc4C3=O)nc3sc4c(c23)CCS(=O)(=O)C4)cc1`, with 298 to 299 °C.
Next, `COC(=O)CCn1c(C)c(Cn2ccnc2)c2c(CCC(=O)O)cccc21`: 136 to 138 °C; `Cc1cc(Oc2ccccc2)ccc1[N+](=O)[O-]`: 43 to 46 °C; `CC(C)c1nc(CCOC(=O)N[C@H](C(=O)N[C@@H](Cc2ccccc2)C[C@H](O)[C@H](Cc2ccccc2)NC(=O)OCc2cncs2)C(C)C)cs1`: 146 to 147 °C.
`COc1ccc(Cl)cc1C(=O)NC1Cc2cc(S(N)(=O)=O)c(OC)cc2OC1(C)C` (configuration not stated) had a melting point of 228 °C.
Then `CCCCCc1ccc([C@H]2CC[C@H](c3ccc(C#N)cc3)CC2)cc1`, with 80 °C; and `CCOC(=O)Oc1ccc(S(=O)(=O)N2c3cc(F)c(F)c(F)c3-n3cccc3C2CC)cc1` (configuration not stated), with 131 to 132 °C; and `COc1cc(Cl)c2nc(-c3ccc(OC)c(F)c3)cc(Br)c2c1`, with 156 to 157 °C.
Turning to `COc1cccc2c1Oc1ccc(C(=O)OC(C)C)cc1NC2`, the melting point stood at 110 °C.
In turn, `O=C(O)Cc1cc(OCc2cccc(Oc3ccccc3)c2)ccc1Nc1c(Cl)cccc1Cl` gave a melting point of 116 to 117 °C.
Then `CCC(=O)Oc1cc2c(s1)CCN(C(C(=O)C1CC1)c1ccccc1F)C2` (configuration not stated), with 101 to 102 °C; and `Cc1cc(-c2[nH]c3ccc(OCc4ccccc4)cc3c2C)cc(C)c1O`, with 162 °C; and `CCN(CC)C(=O)Oc1cc(-c2ccccn2)nc2ccccc12`, with 100 °C.
Next, `CN1CCC(OC2c3cccc(Br)c3CCn3cc(-c4ccccc4)nc32)CC1` (configuration not stated): 83 °C; `O=C(O)CC1CCCN(C(=O)c2ccc(NC(=O)COc3ccccc3)cc2)c2ccccc21` (configuration not stated): 102 to 106 °C; `O=C(O)C1=CC(CF)(CF)Oc2ccc([N+](=O)[O-])cc21`: 171 to 172 °C.
Take `CCCc1c(O)c(C(C)=O)cc(Br)c1OCCCOc1c(C(C)=O)ccc(OCC(=O)O)c1CCC`: the melting point lay in the range of 129 to 130 °C.
Then `CCOC(=O)/C=C/c1cnc(-c2ccc(O)c(C34CC5CC(CC(C5)C3)C4)c2)nc1`, with 226 to 228 °C.
Next, `CCCCCCCCCCCCCCCCOc1cc(OC)c(N)cc1OC`: 61 °C.
Then `NNC(=O)OCC1c2ccccc2-c2ccccc21`, with 150 to 153 °C.
For `OC(CN1CCNC1=S)c1ccc(Cl)cc1` (configuration not stated), the melting point worked out at 153 °C.
Then `FC(F)C(F)(F)Sc1nc(-c2ccc(Cl)c(Cl)c2)c(-c2cccs2)[nH]1`, with 178 to 180 °C.

(Values after a melting point compilation (Tetko et al.; mined from patent text by program, amines drawn as free bases though some values may be those of a salt).)
